PubChem BioAssay (NCI)
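GI50: concentration for 50% inhibition of growth. At the TGI there is no net growth.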

Assays:
Experiment in all cases: NCI-60 cell line screen, 384-well format
IGROV1 ovarian = test system: IGROV1 ovarian
OVCAR-3 ovarian = test system: OVCAR-3 ovarian
SF-295 CNS = test system: SF-295 CNS
RPMI-8226 leukemia = test system: RPMI-8226 leukemia
HCT-15 colon = test system: HCT-15 colon
OVCAR-8 ovarian = test system: OVCAR-8 ovarian
NCI-H460 NSCLC = test system: NCI-H460 NSCLC
OVCAR-5 ovarian = test system: OVCAR-5 ovarian
PC-3 prostate = test system: PC-3 prostate
NCI-H322M lung = test system: NCI-H322M lung
SF-539 CNS = test system: SF-539 CNS
SW-620 colon = test system: SW-620 colon
SK-MEL-28 melanoma = test system: SK-MEL-28 melanoma
HL-60(TB) leukemia = test system: HL-60(TB) leukemia
786-0 renal = test system: 786-0 renal
CCRF-CEM leukemia = test system: CCRF-CEM leukemia
SK-OV-3 ovarian = test system: SK-OV-3 ovarian
MDA-MB-435 melanoma = test system: MDA-MB-435 melanoma
HT29 colon = test system: HT29 colon
HCC-2998 colon = test system: HCC-2998 colon
U251 glioblastoma = test system: U251 glioblastoma
K-562 leukemia = test system: K-562 leukemia
MOLT-4 leukemia = test system: MOLT-4 leukemia
COLO 205 colon = test system: COLO 205 colon
OVCAR-4 ovarian = test system: OVCAR-4 ovarian
SNB-19 CNS = test system: SNB-19 CNS
SF-268 CNS = test system: SF-268 CNS
HOP-92 NSCLC = test system: HOP-92 NSCLC
UO-31 renal = test system: UO-31 renal
NCI/ADR-RES ovarian = test system: NCI/ADR-RES ovarian
ACHN renal = test system: ACHN renal
MALME-3M melanoma = test system: MALME-3M melanoma
T-47D breast = test system: T-47D breast
NCI-H23 lung = test system: NCI-H23 lung
HOP-62 NSCLC = test system: HOP-62 NSCLC
NCI-H226 lung = test system: NCI-H226 lung
A498 renal = test system: A498 renal
A549 NSCLC = test system: A549 NSCLC
UACC-257 melanoma = test system: UACC-257 melanoma
DU-145 prostate = test system: DU-145 prostate
KM12 colon = test system: KM12 colon
M14 melanoma = test system: M14 melanoma
MDA-MB-231 breast = test system: MDA-MB-231 breast
SK-MEL-2 melanoma = test system: SK-MEL-2 melanoma
HCT-116 colon = test system: HCT-116 colon
CAKI-1 renal = test system: CAKI-1 renal
LOX IMVI melanoma = test system: LOX IMVI melanoma
TK-10 renal = test system: TK-10 renal
SN12C renal = test system: SN12C renal
UACC-62 melanoma = test system: UACC-62 melanoma

Question: Which GI50 (IGROV1 ovarian) does the source give for `CO[C@H]1C[C@@H]2CC[C@@H](C)[C@@](O)(O2)C(=O)C(=O)N2CCCC[C@H]2C(=O)O[C@H]([C@H](C)C[C@@H]2CC[C@@H](OP(C)(C)=O)[C@H](OC)C2)CC(=O)[C@H](C)/C=C(\C)[C@@H](O)[C@@H](OC)C(=O)[C@H](C)C[C@H](C)/C=C/C=C/C=C/1C` here?
Answer: < 0.01 µM

Question: And the TGI (IGROV1 ovarian)?
Answer: 16 µM

Question: What about the GI50 (OVCAR-3 ovarian) of the same compound?
Answer: 11.2 µM

Question: What about the TGI (OVCAR-3 ovarian) of the same compound?
Answer: 23.4 µM

Question: What about the GI50 (SF-295 CNS) of the same compound?
Answer: < 0.01 µM

Question: What about the TGI (SF-295 CNS) of the same compound?
Answer: 16.6 µM

Question: And the GI50 (RPMI-8226 leukemia)?
Answer: < 0.01 µM

Question: And the GI50 (HCT-15 colon)?
Answer: 11.4 µM

Question: And the TGI (HCT-15 colon)?
Answer: 23.9 µM

Question: And the GI50 (OVCAR-8 ovarian)?
Answer: 11 µM

Question: What about the TGI (OVCAR-8 ovarian) of the same compound?
Answer: 23.2 µM

Question: What about the GI50 (NCI-H460 NSCLC) of the same compound?
Answer: < 0.01 µM

Question: And the TGI (NCI-H460 NSCLC)?
Answer: 17.4 µM

Question: What about the GI50 (OVCAR-5 ovarian) of the same compound?
Answer: 15.3 µM

Question: And the TGI (OVCAR-5 ovarian)?
Answer: 29.8 µM

Question: And the GI50 (PC-3 prostate)?
Answer: 1.06 µM

Question: And the TGI (PC-3 prostate)?
Answer: 21.3 µM

Question: What about the GI50 (NCI-H322M lung) of the same compound?
Answer: < 0.01 µM

Question: What about the TGI (NCI-H322M lung) of the same compound?
Answer: 25.3 µM

Question: What about the GI50 (SF-539 CNS) of the same compound?
Answer: < 0.01 µM

Question: What about the TGI (SF-539 CNS) of the same compound?
Answer: 20.7 µM

Question: What about the GI50 (SW-620 colon) of the same compound?
Answer: 14.9 µM

Question: And the TGI (SW-620 colon)?
Answer: 28.6 µM

Question: What about the GI50 (SK-MEL-28 melanoma) of the same compound?
Answer: 12.2 µM

Question: And the TGI (SK-MEL-28 melanoma)?
Answer: 24.7 µM

Question: And the GI50 (HL-60(TB) leukemia)?
Answer: 15.3 µM

Question: And the TGI (HL-60(TB) leukemia)?
Answer: 28.7 µM

Question: What about the GI50 ([…]-0 renal) of the same compound?
Answer: 11.2 µM

Question: And the TGI (786-0 renal)?
Answer: 23.5 µM

Question: And the GI50 (CCRF-CEM leukemia)?
Answer: 0.0126 µM

Question: And the TGI (CCRF-CEM leukemia)?
Answer: 17 µM

Question: What about the GI50 (SK-OV-3 ovarian) of the same compound?
Answer: < 0.01 µM

Question: What about the TGI (SK-OV-3 ovarian) of the same compound?
Answer: 20.2 µM

Question: What about the GI50 (MDA-MB-435 melanoma) of the same compound?
Answer: 14.2 µM

Question: What about the TGI (MDA-MB-435 melanoma) of the same compound?
Answer: 27.9 µM

Question: And the GI50 (HT29 colon)?
Answer: 12.5 µM

Question: What about the TGI (HT29 colon) of the same compound?
Answer: 25.2 µM

Question: What about the GI50 (HCC-2998 colon) of the same compound?
Answer: 12.3 µM

Question: And the TGI (HCC-2998 colon)?
Answer: 24.9 µM

Question: What about the GI50 (U251 glioblastoma) of the same compound?
Answer: 4.92 µM

Question: And the TGI (U251 glioblastoma)?
Answer: 21.3 µM

Question: And the GI50 (K-562 leukemia)?
Answer: 11.2 µM

Question: What about the TGI (K-562 leukemia) of the same compound?
Answer: 23.4 µM

Question: And the GI50 (MOLT-4 leukemia)?
Answer: < 0.01 µM

Question: And the TGI (MOLT-4 leukemia)?
Answer: 11.7 µM

Question: And the GI50 (COLO 205 colon)?
Answer: 13.5 µM

Question: And the TGI (COLO 205 colon)?
Answer: 26.5 µM

Question: What about the GI50 (OVCAR-4 ovarian) of the same compound?
Answer: 12 µM

Question: What about the TGI (OVCAR-4 ovarian) of the same compound?
Answer: 25 µM

Question: What about the GI50 (SNB-19 CNS) of the same compound?
Answer: 13.5 µM

Question: What about the TGI (SNB-19 CNS) of the same compound?
Answer: 26.9 µM

Question: And the GI50 (SF-268 CNS)?
Answer: 12.5 µM

Question: And the TGI (SF-268 CNS)?
Answer: 25.3 µM

Question: What about the GI50 (HOP-92 NSCLC) of the same compound?
Answer: 12.5 µM

Question: What about the TGI (HOP-92 NSCLC) of the same compound?
Answer: 25.5 µM

Question: And the GI50 (UO-31 renal)?
Answer: < 0.01 µM

Question: And the TGI (UO-31 renal)?
Answer: 0.0198 µM

Question: What about the GI50 (NCI/ADR-RES ovarian) of the same compound?
Answer: 15.4 µM

Question: What about the TGI (NCI/ADR-RES ovarian) of the same compound?
Answer: 38.7 µM

Question: What about the GI50 (ACHN renal) of the same compound?
Answer: 12.4 µM

Question: What about the TGI (ACHN renal) of the same compound?
Answer: 25.2 µM

Question: And the GI50 (MALME-3M melanoma)?
Answer: < 0.01 µM

Question: And the TGI (MALME-3M melanoma)?
Answer: 21.2 µM

Question: And the GI50 (T-47D breast)?
Answer: < 0.01 µM

Question: And the TGI (T-47D breast)?
Answer: 25 µM

Question: What about the GI50 (NCI-H23 lung) of the same compound?
Answer: 19.5 µM

Question: What about the TGI (NCI-H23 lung) of the same compound?
Answer: 35.2 µM

Question: What about the GI50 (HOP-62 NSCLC) of the same compound?
Answer: 0.491 µM

Question: And the TGI (HOP-62 NSCLC)?
Answer: 21.7 µM

Question: And the GI50 (NCI-H226 lung)?
Answer: 12.4 µM

Question: And the TGI (NCI-H226 lung)?
Answer: 25.3 µM

Question: What about the GI50 (A498 renal) of the same compound?
Answer: < 0.01 µM

Question: And the TGI (A498 renal)?
Answer: 17.6 µM

Question: What about the GI50 (A549 NSCLC) of the same compound?
Answer: < 0.01 µM

Question: What about the TGI (A549 NSCLC) of the same compound?
Answer: 39.9 µM

Question: And the GI50 (UACC-257 melanoma)?
Answer: 15.3 µM

Question: And the TGI (UACC-257 melanoma)?
Answer: 28.7 µM

Question: What about the GI50 (DU-145 prostate) of the same compound?
Answer: 11.3 µM

Question: What about the TGI (DU-145 prostate) of the same compound?
Answer: 26.8 µM

Question: And the GI50 (KM12 colon)?
Answer: 13.4 µM

Question: And the TGI (KM12 colon)?
Answer: 26.6 µM

Question: And the GI50 (M14 melanoma)?
Answer: 10.4 µM

Question: What about the TGI (M14 melanoma) of the same compound?
Answer: 22.2 µM

Question: And the GI50 (MDA-MB-231 breast)?
Answer: 12 µM

Question: What about the TGI (MDA-MB-231 breast) of the same compound?
Answer: 24.4 µM

Question: And the GI50 (SK-MEL-2 melanoma)?
Answer: 11 µM

Question: What about the TGI (SK-MEL-2 melanoma) of the same compound?
Answer: 23 µM

Question: And the GI50 (HCT-116 colon)?
Answer: 12.4 µM

Question: What about the TGI (HCT-116 colon) of the same compound?
Answer: 25.2 µM

Question: What about the GI50 (CAKI-1 renal) of the same compound?
Answer: 10.5 µM

Question: What about the TGI (CAKI-1 renal) of the same compound?
Answer: 23.1 µM

Question: What about the GI50 (LOX IMVI melanoma) of the same compound?
Answer: 17.5 µM

Question: What about the TGI (LOX IMVI melanoma) of the same compound?
Answer: 31.4 µM

Question: What about the GI50 (TK-10 renal) of the same compound?
Answer: 11.6 µM

Question: What about the TGI (TK-10 renal) of the same compound?
Answer: 28.6 µM

Question: And the GI50 (SN12C renal)?
Answer: 14 µM

Question: What about the TGI (SN12C renal) of the same compound?
Answer: 27.2 µM

Question: And the GI50 (UACC-62 melanoma)?
Answer: 7.86 µM

Question: And the TGI (UACC-62 melanoma)?
Answer: 21.6 µM
